Experimental data published in patent US11707516B2, “Method for producing artificial recombinant rotavirus” (Osaka University, priority 2016, dated 2023).

System: luciferase-expressing artificial recombinant rotavirus
Assay: Screening test for anti-rotavirus drug using luciferase-expressing rotavirus in CV-1 cells (luminescence)
Format: cell-based, simian rotavirus
Method: CV-1 cells were seeded on 96-well culture plates at 1×10^5 cells/well on the previous day of infection. The CV-1 cells were infected with wild-type SA11 or the luciferase-expressing artificial recombinant rotavirus produced in Example 4 at an MOI of 0.001. After viral adsorption at 37° C. for 1 hour, the culture supernatant was removed, and DMEM (without FBS and with 0.5 μg/mL trypsin) containing 0, 1, 5, 10, 50, 100 or 200 μM ribavirin (Sigma-Aldrich) was added. Incubation was performed at 37° C. for 14 hours. After that, the substrate stock solution of Nano-Glo Luciferase Assay System (trade name, Promega) was added to the culture medium, and luminescence was detected with an in vivo imaging system (IVIS Spectrum, manufactured by Xenogen).

NC(=O)c1ncn([C@@H]2O[C@H](CO)[C@@H](O)[C@H]2O)n1 [ribavirin]
luminescence intensity (viral proliferation inhibitory effect) (MOI of 0.001, 0, 1, 5, 10, 50, 100 or 200 μM ribavirin, 14 hours): decreased in a ribavirin concentration-dependent manner | ribavirin concentration at which no luminescence was observed (MOI of 0.001, 14 hours): ≥ 50 µM
